# Assays:
# [1] = relative to doxorubicin; cited from earlier work
# CD22 = CD22 (Homo sapiens, UniProt P20273); experiment: antibody binding to target antigen after conjugation
# [2] = system: Daudi, Raji, Ramos and JVM-3 hematopoietic tumor lines; experiment: cytotoxicity of P2PDox-mAb conjugates to target cells; assay type: cell-based; conditions: not shown
# Excerpt: The cytotoxicity of P2PDox-mAb conjugates to target cells was examined. hRS7-P2PDox and hMN-15-P2PDox were cytotoxic to MDA-MB-468, AG S, NCI-N87 and Capan-1 solid tumor cell lines (not shown). hMN-14-P2PDox was cytotoxic to Capan-1, BxPC-3 and AsPC-1 human pancreatic tumor lines and AGS, NCI-N87 and LS147T human gastric and colonic tumor lines (not shown). hLL2-P2PDOx was cytotoxic to Daudi, Raji, Ramos and JVM-3 hematopoietic tumor lines (not shown). IC50 values for the conjugates were in the nanomolar concentration range (not shown).
# moderately active SLE = experiment: open-label study in SLE patients
# Method: An open-label, single-center study of patients with moderately active SLE (total British Isles Lupus Assessment Group (BILAG) score 6 to 12) is conducted. Patients receive dosages of epratuzumab-P2PDox (conjugated at a drug/antibody ratio of 3.5) of 10, 20, 40 and 60 mg conjugate i.v. every other week for 3 injections, repeated 4 months later. Evaluations include safety, SLE activity (BILAG), blood levels of B and T cells, and human anti-epratuzumab antibody (HAHA) titers.
# [3] = system: Non-Hodgkin's Lymphoma (NHL); experiment: treatment of NHL patients; assay type: in vivo, human
# Method: A P2PDox-epratuzumab ADC is prepared as described in Examples 1 and 3 above. Seventeen patients with previously untreated or relapsed NHL receive 4 doses of 70, 100 or 150 mg P2PDox-epratuzumab injected i.v. every two weeks. Responses are assessed by CT scans, with other evaluations including adverse event, B-cell blood levels, serum epratuzumab levels and human anti-epratuzumab (HAHA) titers.
# [4] = 4 doses of 70, 100 or 150 mg i.v. every two weeks, 17 patients
Compound,"cytotoxicity, times that of doxorubicin [1]",effect of conjugation on antibody binding (CD22),cytotoxicity [2],"decrease of total BILAG scores (moderately active SLE; all patients, 10, 20, 40 and 60 mg i.v. every other week for 3 injections, drug/antibody ratio 3.5)","patients with improvement in at least one BILAG B- or C-level disease activity (moderately active SLE; at 6, 10 and 18 weeks)",average decrease of B-cell levels (moderately active SLE; at 18 weeks),"patients with BILAG decreases continuing to at least 18 weeks (moderately active SLE; human, in vivo)","tolerability (moderately active SLE; human, in vivo)","complete response/complete response unconfirmed rate [3, 4]","objective response rate [3, 4]",transient B-cell depletion ([3]; all dosage levels),"human anti-epratuzumab antibody (HAHA) in serum samples ([3]; human, in vivo)","objective responses continuing for 30 weeks or more ([3]; human, in vivo)",safety issues ([3]; reversible after interrupting therapy)
COc1cccc2c1C(=O)c1c(O)c3c(c(O)c1C2=O)C[C@@](O)(C(=O)CO)C[C@@H]3O[C@H]1C[C@H](N2C=CCC2)[C@H](O)[C@H](C)O1 [2-pyrrolinodoxorubicin],500-1000 times,–,–,–,–,–,–,–,–,–,–,–,–,–
hLL2-P2PDox,–,lack of effect of conjugation on antibody binding to target antigen,cytotoxic,at least 50%,93%,35%,92%,well tolerated,24%,47%,up to 25%,negative,Four of the eight,neutropenia up to Grade 3

# Reference: patent US9486536B2 (Immunomedics, Inc., priority 2013, dated 2016)
